Laboratory results published in patent US20070059708A1, “Gene screen” (priority 2003, published 2007).

System: HT29 cells
Experiment: Optimisation of HT29 cell growth in butyrate as sole extraneous carbon source (cell counts)
Format: cell-based, human
Settings: HT29 colon carcinoma cells, DMEM without glucose, multiple concentrations compared
Experimental: We have compared the expression profiles of colon cells growing in either glucose or butyrate as a carbon source. HT 29 colon carcinoma cells were cultured in DMEM medium (Gibco) in the presence of 10% foetal calf serum, penicillin and streptomycin. Cells were either cultured in glucose alone as the sole carbon source, or in butyrate as the sole extraneous provided carbon source. […] Cells were cultured in either medium for multiple passages (typically 4). RNA was extracted from cells grown in each condition and used to probe an Affymetrix human 12 k array. The expression profile of cells cultured in each condition was compared and genes altered in expression by more than 2 fold are listed in Table 2.
HT29 cells were seeded out into 19 wells (in 6 well plates) at a cell density of 0.5×10^6 cells per well (i.e. 500 000 cells per well) deduced with the aid of a Haemocytometer (Improved Neubauer). These cells were taken from T75-0.2 mM butyrate (NaB) DMEM flasks and allowed to adhere to the 6-well plates over 72 hrs also in 0.2 mM NaB DMEM with FCS and Penicillin/Streptomycin antibiotics. […]

**Q.** Which “butyrate concentration optimal for cell culture” value does the source give for CCCC(=O)[O-].[Na+] [butyrate, Sodium Butyrate] here?
**A.** 2 mM
